# Measured values taken from PubChem BioAssay AID328 (DTP/NCI, 2004).
# Several values for one entry are separate records, joined by “and”; a condition that tells them apart may be missing. Equal values may be shown once. Toxic doses and inconclusive results are not listed. Non-standard residues stand in square brackets, D forms with d. Residues, ends and D or L forms follow the SMILES beside them. ξ: configuration not given here. ξPhe(4-N(CH2CH2Cl)2) = NC(Cc1ccc(N(CCCl)CCCl)cc1)C(=O)O
# Test system: BDF1 mice, P388 leukemia ip, median survival T/C
# Assay: NCI In Vivo Anticancer Drug Screen. Data for tumor model P388 Leukemia (intraperitoneal) in B6D2F1 (BDF1) mice
# Settings: endpoint: median survival time, higher = longer survival
# Method in brief: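 Vehicle-dosed animals serve as the reference; survival of compound-dosed, tumour-implanted mice is divided by it.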
# [1] = dose: 25.0 mg/kg/injection, schedule: Q04DX003 (ip), vehicle: water
# [2] = dose: 50.0 mg/kg/injection, schedule: Q04DX003 (ip), vehicle: water
# [3] = dose: 50.0 mg/kg/injection, schedule: Q01DX009 (ip), vehicle: saline
# [4] = dose: 100.0 mg/kg/injection, schedule: Q01DX009 (ip), vehicle: saline
# [5] = dose: 100.0 mg/kg/injection, schedule: Q04DX003 (ip), vehicle: saline with Tween-80
# [6] = dose: 200.0 mg/kg/injection, schedule: Q04DX003 (ip), vehicle: saline with Tween-80
# [7] = dose: 400.0 mg/kg/injection, schedule: Q04DX003 (ip), vehicle: saline with Tween-80
# [8] = dose: 50.0 mg/kg/injection, schedule: Q01DX009 (ip), vehicle: saline with Tween-80
# [9] = dose: 100.0 mg/kg/injection, schedule: Q01DX009 (ip), vehicle: saline with Tween-80
# [10] = dose: 200.0 mg/kg/injection, schedule: Q01DX009 (ip), vehicle: saline with Tween-80
# [11] = dose: 12.5 mg/kg/injection, schedule: Q01DX009 (ip), vehicle: saline
# [12] = dose: 25.0 mg/kg/injection, schedule: Q01DX009 (ip), vehicle: saline
compound,measurement,setting,value
CCOC(=O)C(Cc1ccc(N(CCCl)CCCl)cc1)NC(=O)C(CCC(=O)O)NC(=O)C(CO)NC(=O)C(CCC(=O)O)NC(=O)C(N)CO (stereo unspecified) (H-SESE[ξPhe(4-N(CH2CH2Cl)2)]-OEt; configuration not given here),T/C,"dose: 5.0 mg/kg/injection, schedule: Q04DX003 (ip), vehicle: water",97 % of control
same,T/C,"dose: 10.0 mg/kg/injection, schedule: Q04DX003 (ip), vehicle: water",99 % of control
same,T/C,"dose: 20.0 mg/kg/injection, schedule: Q04DX003 (ip), vehicle: water",100 % of control
same,T/C,"dose: 40.0 mg/kg/injection, schedule: Q04DX003 (ip), vehicle: water",100 % of control
CC(C)([NH-])CO.CC(C)([NH-])CO.[Cl][Cd][Cl],T/C,"dose: 5.0 mg/kg/injection, schedule: Q01DX009 (ip), vehicle: saline",120 % of control
same,T/C,"dose: 6.25 mg/kg/injection, schedule: Q04DX003 (ip), vehicle: saline sonified",104 % of control
same,T/C,"dose: 10.0 mg/kg/injection, schedule: Q01DX009 (ip), vehicle: saline",120 % of control
same,T/C,"dose: 10.0 mg/kg/injection, schedule: Q04DX003 (ip), vehicle: saline",109 % of control
same,T/C,"dose: 12.5 mg/kg/injection, schedule: Q04DX003 (ip), vehicle: saline sonified",108 % of control
same,T/C,"dose: 20.0 mg/kg/injection, schedule: Q04DX003 (ip), vehicle: saline",95 % of control
Nc1ccn(CC(=O)N2CCOCC2)c(=O)n1,T/C,[1],106 % of control
same,T/C,[2],103 % of control
same,T/C,"dose: 100.0 mg/kg/injection, schedule: Q04DX003 (ip), vehicle: water",89 % of control
same,T/C,"dose: 200.0 mg/kg/injection, schedule: Q04DX003 (ip), vehicle: water",103 % of control
same,T/C,"dose: 400.0 mg/kg/injection, schedule: Q04DX003 (ip), vehicle: water",94 % of control
Nc1ccc(OCc2ccc(S(=O)(=O)F)c(Cl)c2)c(Cl)c1,T/C,"dose: 100.0 mg/kg/injection, schedule: Q01DX001 (ip), vehicle: saline",103 % of control
same,T/C,"dose: 200.0 mg/kg/injection, schedule: Q01DX001 (ip), vehicle: saline",100 % of control
same,T/C,"dose: 400.0 mg/kg/injection, schedule: Q01DX001 (ip), vehicle: saline",92 % of control
CCOC(=O)CN1C(=O)C(Cl)=C(Cl)C1=O,T/C,"dose: 3.12 mg/kg/injection, schedule: Q01DX009 (ip), vehicle: Klucel (hydroxypropylcellulose) (HPC)",95 % of control
same,T/C,"dose: 6.25 mg/kg/injection, schedule: Q01DX009 (ip), vehicle: Klucel (hydroxypropylcellulose) (HPC)",95 % of control
same,T/C,"dose: 9.2 mg/kg/injection, schedule: Q04DX003 (ip), vehicle: Klucel (hydroxypropylcellulose) (HPC)",100 % of control
same,T/C,"dose: 14.0 mg/kg/injection, schedule: Q04DX003 (ip), vehicle: Klucel (hydroxypropylcellulose) (HPC)",91 % of control
same,T/C,"dose: 21.0 mg/kg/injection, schedule: Q04DX003 (ip), vehicle: Klucel (hydroxypropylcellulose) (HPC)",91 % of control
same,T/C,"dose: 29.0 mg/kg/injection, schedule: Q04DX003 (ip), vehicle: Klucel (hydroxypropylcellulose) (HPC)",100 % of control
CN(CCCl)Cc1ccccc1,T/C,"dose: 0.04 mg/kg/injection, schedule: Q01DX009 (ip), vehicle: saline",95 % of control
same,T/C,"dose: 0.07 mg/kg/injection, schedule: Q01DX009 (ip), vehicle: saline",87 % of control
same,T/C,"dose: 22.0 mg/kg/injection, schedule: Q04DX003 (ip), vehicle: saline",104 % of control
same,T/C,"dose: 25.0 mg/kg/injection, schedule: Q04DX003 (ip), vehicle: saline",109 % of control
same,T/C,"dose: 33.0 mg/kg/injection, schedule: Q01DX009 (ip), vehicle: saline sonified",116 % of control
same,T/C,"dose: 35.0 mg/kg/injection, schedule: Q04DX003 (ip), vehicle: saline",109 % of control
same,T/C,"dose: 50.0 mg/kg/injection, schedule: Q01DX009 (ip), vehicle: saline sonified",120 % of control
same,T/C,[3],210 % of control
same,T/C,"dose: 75.0 mg/kg/injection, schedule: Q01DX009 (ip), vehicle: saline sonified",195 % of control
same,T/C,[4],155 % of control
same,T/C,"dose: 150.0 mg/kg/injection, schedule: Q04DX003 (ip), vehicle: saline",175 % of control
CC(C)(C)N(O)N=O.CC(C)(C)N(O)N=O.[Cu],T/C,"dose: 1.56 mg/kg/injection, schedule: Q01DX001 (ip), vehicle: saline",107 % of control
same,T/C,"dose: 3.13 mg/kg/injection, schedule: Q01DX001 (ip), vehicle: saline",109 % of control
same,T/C,"dose: 6.25 mg/kg/injection, schedule: Q01DX001 (ip), vehicle: saline",106 % of control
NCCNc1ccc(NCCN)c2c1C(=O)c1ccccc1C2=O,T/C,"dose: 6.25 mg/kg/injection, schedule: Q01DX009 (ip), vehicle: other",214 % of control
O=c1c2ccccc2c2c3c1cccc3c1cccc3c(=O)c4ccccc4c2c31,T/C,[5],86 % of control
same,T/C,[6],90 % of control
same,T/C,[7],90 % of control
c1ccc2c(c1)nnn2OC1CCCC1,T/C,[8],106 % of control
same,T/C,[9],116 % of control
same,T/C,[10],119 % of control
CC[C@@H]1C[C@H]2CC3c4[nH]c5ccc(O)cc5c4CCN(C2)C31,T/C,"dose: 25.0 mg/kg/injection, schedule: Q01DX001 (ip), vehicle: saline with Tween-80",106 % of control
same,T/C,"dose: 50.0 mg/kg/injection, schedule: Q01DX001 (ip), vehicle: saline with Tween-80",104 % of control
same,T/C,"dose: 100.0 mg/kg/injection, schedule: Q01DX001 (ip), vehicle: saline with Tween-80",108 % of control
O=C(CSc1cc(-c2ccc(Cl)cc2)s[s+]1)c1ccc(Cl)cc1,T/C,[11],109 % of control
same,T/C,[12],89 % of control
same,T/C,[3],89 % of control
same,T/C,"dose: 50.0 mg/kg/injection, schedule: Q04DX003 (ip), vehicle: saline",97 % of control
same,T/C,[4],101 % of control
same,T/C,"dose: 100.0 mg/kg/injection, schedule: Q04DX003 (ip), vehicle: saline",90 % of control and 100 % of control and 105 % of control
same,T/C,"dose: 200.0 mg/kg/injection, schedule: Q01DX009 (ip), vehicle: saline",107 % of control
same,T/C,"dose: 200.0 mg/kg/injection, schedule: Q04DX003 (ip), vehicle: saline",97 % of control and 111 % of control
same,T/C,"dose: 300.0 mg/kg/injection, schedule: Q04DX003 (ip), vehicle: saline",111 % of control
same,T/C,"dose: 400.0 mg/kg/injection, schedule: Q04DX003 (ip), vehicle: saline",103 % of control
Cc1ccc(N2C(=O)CSC2=S)cc1,T/C,[8],105 % of control
same,T/C,[9],95 % of control
same,T/C,[10],95 % of control
OCCOCCOCCN1CCN(CCCN2c3ccccc3Sc3ccc(C(F)(F)F)cc32)CC1,T/C,"dose: 0.79 mg/kg/injection, schedule: Q01DX009 (ip), vehicle: saline",91 % of control
same,T/C,"dose: 6.25 mg/kg/injection, schedule: Q01DX009 (ip), vehicle: saline",112 % of control
CN1CC=Nc2c1nc(N)[nH]c2=O,T/C,"dose: 12.5 mg/kg/injection, schedule: Q01DX009 (ip), vehicle: saline with Tween-80",109 % of control
same,T/C,"dose: 25.0 mg/kg/injection, schedule: Q01DX009 (ip), vehicle: saline with Tween-80",107 % of control
same,T/C,[8],102 % of control
O=C(C[n+]1ccccc1)N/N=C/c1ccc([N+](=O)[O-])s1,T/C,"dose: 12.5 mg/kg/injection, schedule: Q01DX009 (ip), vehicle: water",114 % of control
same,T/C,[1],90 % of control
same,T/C,[2],104 % of control
CC(=O)O[C@H]1CC[C@H]2[C@@H]3[C@H](C)CC4=CC(=O)CCC4[C@H]3CC[C@]12C (stereo partly specified),T/C,[9],95 % of control
same,T/C,[5],100 % of control
same,T/C,[10],90 % of control
same,T/C,[6],95 % of control
same,T/C,"dose: 400.0 mg/kg/injection, schedule: Q01DX009 (ip), vehicle: saline with Tween-80",100 % of control
same,T/C,[7],100 % of control
OC(Cc1nc2ccccc2nc1CC(O)(c1ccccc1)c1ccccc1)(c1ccccc1)c1ccccc1,T/C,[8],90 % of control
same,T/C,[9],98 % of control
same,T/C,[10],106 % of control
CC(=Nc1ccccc1)C1=C(O)C(Cc2ccccc2)NC1=O (stereo unspecified),T/C,[8],124 % of control
COc1ccc(C(=O)/C=C/c2ccc(OCc3ccccc3)cc2)c(OC)c1,T/C,[8],103 % of control
same,T/C,[9],94 % of control
same,T/C,[10],90 % of control
CC(=O)N(O)CCCCCNC(=O)CCC(=O)N(O)CCCCCNC(=O)CCC(=O)N(O)CCCCCN,T/C,[8],101 % of control
same,T/C,[9],102 % of control
CC(C)CCCC(C)C1CCC2C3CC=C4CC([S+](C)C)CCC4(C)C3CCC12C (stereo unspecified),T/C,[11],109 % of control
same,T/C,[12],86 % of control
